Test results reported in article PMC6402191 (Clinical and Translational Science, 2017).
Read-outs that look alike come from different tables or passages of the source.

Tests used:
[1] = molecular target: T1, MATE1 (Homo sapiens, UniProt Q96FL8); experiment: Baricitinib substrate study in MATE1-transfected HEK cells; type: in vitro ADME
T1 sequence (Q96FL8 1-570): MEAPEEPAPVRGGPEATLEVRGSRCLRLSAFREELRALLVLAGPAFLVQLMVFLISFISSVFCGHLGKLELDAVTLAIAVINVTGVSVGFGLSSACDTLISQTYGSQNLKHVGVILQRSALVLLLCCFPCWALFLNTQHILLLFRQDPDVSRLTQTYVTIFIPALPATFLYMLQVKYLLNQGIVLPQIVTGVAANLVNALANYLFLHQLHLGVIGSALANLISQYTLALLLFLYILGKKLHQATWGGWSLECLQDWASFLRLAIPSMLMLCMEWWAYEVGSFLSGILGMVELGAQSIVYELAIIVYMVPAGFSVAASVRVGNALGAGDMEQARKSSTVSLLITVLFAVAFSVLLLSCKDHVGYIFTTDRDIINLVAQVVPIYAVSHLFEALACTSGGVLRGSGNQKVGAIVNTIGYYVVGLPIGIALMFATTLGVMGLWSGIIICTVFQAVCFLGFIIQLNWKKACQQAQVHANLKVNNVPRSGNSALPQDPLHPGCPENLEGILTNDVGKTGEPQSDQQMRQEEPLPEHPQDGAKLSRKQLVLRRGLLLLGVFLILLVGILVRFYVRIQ

[2] = molecular target: MATE2-K (Homo sapiens, UniProt Q86VL8); experiment: Uptake of baricitinib into MATE2-K-transfected HEK cells; type: in vitro ADME
Sequence of MATE2-K (Q86VL8 1-566 isoform Q86VL8-3): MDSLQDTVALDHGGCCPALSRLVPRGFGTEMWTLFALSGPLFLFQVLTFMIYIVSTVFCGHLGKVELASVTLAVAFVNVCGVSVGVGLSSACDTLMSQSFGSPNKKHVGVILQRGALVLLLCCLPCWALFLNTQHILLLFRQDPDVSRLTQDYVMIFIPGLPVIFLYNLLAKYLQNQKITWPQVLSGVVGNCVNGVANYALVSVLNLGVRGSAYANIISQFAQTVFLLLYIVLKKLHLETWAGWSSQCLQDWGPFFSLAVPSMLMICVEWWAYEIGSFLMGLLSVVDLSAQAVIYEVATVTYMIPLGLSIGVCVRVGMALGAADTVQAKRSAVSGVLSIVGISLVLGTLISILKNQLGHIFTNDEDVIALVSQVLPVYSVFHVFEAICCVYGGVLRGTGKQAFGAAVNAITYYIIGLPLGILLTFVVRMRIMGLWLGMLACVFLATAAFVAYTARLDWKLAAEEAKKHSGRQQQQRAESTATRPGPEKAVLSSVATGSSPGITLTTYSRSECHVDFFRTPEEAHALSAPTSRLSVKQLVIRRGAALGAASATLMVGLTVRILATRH

## CCS(=O)(=O)N1CC(CC#N)(n2cc(-c3ncnc4[nH]ccc34)cn2)C1 [Baricitinib]
[1]
  MATE1 substrate: not a substrate
[2]
  MATE2-K substrate: substrate of MATE2‐K
  MATE2‐K Vmax: 1315 ± 129 pmol/min/mg protein
[2]; 0.5 min
  Uptake into MATE2-K cells relative to control cells: approximately three times greater
[2]; PBPK input
  MATE2‐K Vmax: 657.5 pmol/min/10^6 cells
